Counter-ions that a name gives are not always drawn.
molecular target: T1, human GluN1/GluN2B NMDA receptors (Homo sapiens, UniProt Q13224); assay: Calcium flux (FLIPR) assay on cloned human NR1/GluN2B ion channels expressed in mammalian cells (standard and HTS variants); type: cell-based; settings: cells expressing human GluN1/GluN2B, glutamate and glycine co-agonists
T1 construct: expressed in transfected cells
Method in brief: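 Calcium influx read by FLIPR after co-agonist addition (glycine 10 μM, glutamate near EC40) following 5 min compound preincubation, with signal normalized to control wells.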

T1 sequence (Q13224 27-1484, other chains not shown): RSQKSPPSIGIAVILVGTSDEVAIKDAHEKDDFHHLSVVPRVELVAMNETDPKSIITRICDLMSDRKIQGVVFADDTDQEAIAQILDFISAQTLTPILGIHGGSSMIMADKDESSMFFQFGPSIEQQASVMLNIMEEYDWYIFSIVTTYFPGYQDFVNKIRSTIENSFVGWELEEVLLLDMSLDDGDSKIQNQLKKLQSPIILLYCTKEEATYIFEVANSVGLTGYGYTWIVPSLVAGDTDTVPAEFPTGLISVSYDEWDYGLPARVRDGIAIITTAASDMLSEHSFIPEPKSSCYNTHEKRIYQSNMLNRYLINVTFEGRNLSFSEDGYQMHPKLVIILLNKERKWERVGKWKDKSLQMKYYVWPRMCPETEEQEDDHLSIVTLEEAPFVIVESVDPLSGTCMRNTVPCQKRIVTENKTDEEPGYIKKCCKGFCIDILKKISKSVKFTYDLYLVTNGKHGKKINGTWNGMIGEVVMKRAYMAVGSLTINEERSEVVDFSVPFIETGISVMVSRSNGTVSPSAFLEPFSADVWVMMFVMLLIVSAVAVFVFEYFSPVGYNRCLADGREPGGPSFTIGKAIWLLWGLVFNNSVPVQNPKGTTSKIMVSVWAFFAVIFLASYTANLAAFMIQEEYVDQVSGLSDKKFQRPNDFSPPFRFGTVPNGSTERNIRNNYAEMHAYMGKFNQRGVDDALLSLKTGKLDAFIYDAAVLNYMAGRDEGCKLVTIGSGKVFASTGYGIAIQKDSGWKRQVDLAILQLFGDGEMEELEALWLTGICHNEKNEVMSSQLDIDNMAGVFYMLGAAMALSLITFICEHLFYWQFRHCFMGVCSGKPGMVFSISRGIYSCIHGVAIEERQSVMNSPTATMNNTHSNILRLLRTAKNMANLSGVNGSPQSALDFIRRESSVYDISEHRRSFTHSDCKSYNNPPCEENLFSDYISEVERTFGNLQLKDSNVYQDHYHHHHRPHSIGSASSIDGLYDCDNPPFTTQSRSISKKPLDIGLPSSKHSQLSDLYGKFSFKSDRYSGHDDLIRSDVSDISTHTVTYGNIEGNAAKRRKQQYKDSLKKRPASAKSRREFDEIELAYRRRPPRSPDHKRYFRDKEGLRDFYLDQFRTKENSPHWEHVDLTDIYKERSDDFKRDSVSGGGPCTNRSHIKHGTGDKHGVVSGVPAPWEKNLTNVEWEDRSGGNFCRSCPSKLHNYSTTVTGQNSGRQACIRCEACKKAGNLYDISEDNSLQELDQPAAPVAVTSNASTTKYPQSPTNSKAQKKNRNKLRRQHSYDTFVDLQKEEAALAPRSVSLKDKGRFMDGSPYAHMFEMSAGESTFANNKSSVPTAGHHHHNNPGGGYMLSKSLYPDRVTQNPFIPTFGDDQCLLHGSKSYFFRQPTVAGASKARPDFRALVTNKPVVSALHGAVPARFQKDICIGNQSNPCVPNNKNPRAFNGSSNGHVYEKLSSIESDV

Compared with `Cc1noc(Cn2ncc3ncc(-c4cc(C(F)(F)F)ccc4F)cc32)n1` [Example 109, 5-[[6-[2-Fluoro-5-(trifluoromethyl)phenyl]pyrazolo[4,3-b]pyridin-1-yl]methyl]-3-methyl-1,2,4-oxadiazole], `Cc1noc(Cn2ncc3ncc(-c4cccc(C(F)(F)F)c4F)cc32)n1` [Example 111, 5-[[6-[2-Fluoro-3-(trifluoromethyl)phenyl]pyrazolo[4,3-b]pyridin-1-yl]methyl]-3-methyl-1,2,4-oxadiazole] is 18-fold lower in IC50: 3260 nM for the first, 183 nM for the second.

`Fc1ccc(-c2cnc3cnn(Cc4ccncn4)c3c2)cc1OC(F)F` [Example 271, 6-[3-(Difluoromethoxy)-4-fluoro-phenyl]-1-(pyrimidin-4-ylmethyl)pyrazolo[4,3-b]pyridine] and `Fc1ccc(-c2cnc3cnn(Cc4cnccn4)c3c2)cc1OC(F)F` [Example 273, 6-[3-(Difluoromethoxy)-4-fluoro-phenyl]-1-(pyrazin-2-ylmethyl)pyrazolo[4,3-b]pyridine] are within 1.5-fold of each other in IC50: 401 nM for the first, 320 nM for the second.

`CC(F)(F)c1cc(-c2cnc3cnn(Cc4cccnn4)c3c2)ccc1F` [Example 260, 6-[3-(1,1-Difluoroethyl)-4-fluoro-phenyl]-1-(pyridazin-3-ylmethyl)pyrazolo[4,3-b]pyridine] and `Cc1cncc(Cn2ncc3ncc(-c4ccc(F)c(C(C)(F)F)c4)cc32)c1` [Example 217, 6-[3-(1,1-Difluoroethyl)-4-fluoro-phenyl]-1-[(5-methyl-3-pyridyl)methyl]pyrazolo[4,3-b]pyridine] are within 1.5-fold of each other in IC50: 162 nM for the first, 189 nM for the second.

First: FC(F)(F)c1ccc(Cn2ncc3ncc(-c4cccc(C(F)(F)F)c4)cc32)cc1 [Example 25, 6-[3-(Trifluoromethyl)phenyl]-1-[[4-(trifluoromethyl)phenyl]methyl]pyrazolo[4,3-b]pyridine hydrochloride salt]
Second: Fc1ncccc1Cn1ncc2ncc(-c3cccc(C(F)(F)F)c3)cc21 [Example 170, 1-[(2-Fluoro-3-pyridyl)methyl]-6-[3-(trifluoromethyl)phenyl]pyrazolo[4,3-b]pyridine]
The IC50 of the first is higher: > 10000 nM for the first, 1040 nM for the second. The second is the more potent here.

Compared with `N#Cc1cncc(Cn2ncc3ncc(-c4ccc(C(F)(F)F)s4)cc32)c1` [Example 144, 5-[[6-[5-(Trifluoromethyl)-2-thienyl]pyrazolo[4,3-b]pyridin-1-yl]methyl]pyridine-3-carbonitrile], `N#Cc1cncc(Cn2ncc3ncc(-c4ccc(C(F)F)s4)cc32)c1` [Example 142, 5-[[6-[5-(Difluoromethyl)-2-thienyl]pyrazolo[4,3-b]pyridin-1-yl]methyl]pyridine-3-carbonitrile] is 2.7-fold lower in IC50: 582 nM for the first, 219 nM for the second.

First: Cn1cnc(Cn2ncc3ncc(-c4ccc(F)c(C(F)F)c4)cc32)n1 [Example 73, 6-[3-(Difluoromethyl)-4-fluoro-phenyl]-1-[(1-methyl-1,2,4-triazol-3-yl)methyl]pyrazolo[4,3-b]pyridine]
Second: Cc1ncc(Cn2ncc3ncc(-c4ccc(F)c(C(F)F)c4)cc32)o1 [Example 54, 5-[[6-[3-(Difluoromethyl)-4-fluoro-phenyl]pyrazolo[4,3-b]pyridin-1-yl]methyl]-2-methyl-oxazole]
The IC50 of the first is 2.9-fold higher: 383 nM for the first, 133 nM for the second.

First: Cc1cc(-c2cnc3cnn(Cc4ccc(F)nc4)c3c2)ccc1F [Example 182, 6-(4-Fluoro-3-methyl-phenyl)-1-[(6-fluoro-3-pyridyl)methyl]pyrazolo[4,3-b]pyridine]
Second: Fc1ccc(Cn2ncc3ncc(-c4ccc(F)c(F)c4)cc32)cn1 [Example 191, 6-(3,4-Difluorophenyl)-1-[(6-fluoro-3-pyridyl)methyl]pyrazolo[4,3-b]pyridine]
The IC50 of the first is 2.8-fold lower: 64 nM for the first, 176 nM for the second.

Going from `Fc1ccc(-c2cnc3cnn(Cc4cncc(Cl)c4)c3c2)cc1OC(F)F` [Example 231, 1-[(5-Chloro-3-pyridyl)methyl]-6-[3-(difluoromethoxy)-4-fluoro-phenyl]pyrazolo[4,3-b]pyridine] to `Fc1cncc(Cn2ncc3ncc(-c4ccc(Cl)c(OC(F)F)c4)cc32)c1` [Example 240, 6-[4-Chloro-3-(difluoromethoxy)phenyl]-1-[(5-fluoro-3-pyridyl)methyl]pyrazolo[4,3-b]pyridine], the IC50 rises from 39 nM to 166 nM (4.3-fold). The first is the more potent here.

`Cc1nnc(Cn2ncc3ncc(-c4ccc(Cl)c(C(F)F)c4)cc32)o1` [Example 106, 2-[[6-[4-Chloro-3-(difluoromethyl)phenyl]pyrazolo[4,3-b]pyridin-1-yl]methyl]-5-methyl-1,3,4-oxadiazole] and `Cc1nnc(Cn2ncc3ncc(-c4ccc(F)c(OC(F)F)c4)cc32)o1` [Example 113, 2-[[6-[3-(Difluoromethoxy)-4-fluoro-phenyl]pyrazolo[4,3-b]pyridin-1-yl]methyl]-5-methyl-1,3,4-oxadiazole] are within 1.5-fold of each other in IC50: 115 nM for the first, 104 nM for the second.

Going from `Cc1nnc(Cn2ncc3ncc(-c4ccc(Cl)s4)cc32)o1` [Example 77, 2-[[6-(5-Chloro-2-thienyl)pyrazolo[4,3-b]pyridin-1-yl]methyl]-5-methyl-1,3,4-oxadiazole] to `Cc1nnc(Cn2ncc3ncc(-c4ccc(F)c(C(=O)O)c4)cc32)o1` [Example 293, 2-Fluoro-5-(1-((5-methyl-1,3,4-oxadiazol-2-yl)methyl)-1H-pyrazolo[4,3-b]pyridin-6-yl)benzoic acid], the IC50 rises from 89 nM to > 10000 nM.

Going from `Cc1cc(Cn2ncc3ncc(-c4cccc(C(F)(F)F)c4)cc32)ns1` [Example 64, 5-Methyl-3-[[6-[3-(trifluoromethyl)phenyl]pyrazolo[4,3-b]pyridin-1-yl]methyl]isothiazole] to `Cc1noc(Cn2ncc3ncc(-c4cccc(C(F)(F)F)c4)cc32)n1` [Example 84, 3-Methyl-5-[[6-[3-(trifluoromethyl)phenyl]pyrazolo[4,3-b]pyridin-1-yl]methyl]-1,2,4-oxadiazole], the IC50 falls from 2240 nM to 293 nM (7.6-fold). The second is the more potent here.

First: Cc1noc(Cn2ncc3ncc(-c4ccc(F)c(OC(F)F)c4)cc32)n1 [Example 112, 5-[[6-[3-(Difluoromethoxy)-4-fluoro-phenyl]pyrazolo[4,3-b]pyridin-1-yl]methyl]-3-methyl-1,2,4-oxadiazole]
Second: Cc1ccc(Cn2ncc3ncc(-c4ccc(F)c(OC(F)F)c4)cc32)nn1 [Example 264, 6-[3-(Difluoromethoxy)-4-fluoro-phenyl]-1-[(6-methylpyridazin-3-yl)methyl]pyrazolo[4,3-b]pyridine]
The IC50 of the first is 2.2-fold lower: 289 nM for the first, 626 nM for the second.

First: N#Cc1cncc(Cn2ncc3ncc(-c4ccc(F)c(C(F)F)c4)cc32)c1 [Example 203, 5-[[6-[3-(Difluoromethyl)-4-fluoro-phenyl]pyrazolo[4,3-b]pyridin-1-yl]methyl]pyridine-3-carbonitrile]
Second: Cc1cncc(Cn2ncc3ncc(-c4ccc(F)c(C(F)F)c4)cc32)c1 [Example 200, 6-[3-(Difluoromethyl)-4-fluoro-phenyl]-1-[(5-methyl-3-pyridyl)methyl]pyrazolo[4,3-b]pyridine]
The IC50 of the first is 2.6-fold higher: 31 nM for the first, 12 nM for the second. The second is the more potent here.

Compared with `FC(F)c1cccc(-c2cnc3cnn(Cc4ccccn4)c3c2)c1` [Example 156, 6-[3-(Difluoromethyl)phenyl]-1-(2-pyridylmethyl)pyrazolo[4,3-b]pyridine], `COc1ncccc1Cn1ncc2ncc(-c3ccc(F)c(C(F)F)c3)cc21` [Example 206, 6-[3-(Difluoromethyl)-4-fluoro-phenyl]-1-[(2-methoxy-3-pyridyl)methyl]pyrazolo[4,3-b]pyridine] is 2.4-fold lower in IC50: 740 nM for the first, 307 nM for the second. The second is the more potent here.

Compared with `Fc1cncc(Cn2ncc3ncc(-c4cc(F)cc(F)c4)cc32)c1` [Example 185, 6-(3,5-Difluorophenyl)-1-[(5-fluoro-3-pyridyl)methyl]pyrazolo[4,3-b]pyridine], `Fc1cncc(Cn2ncc3ncc(-c4ccc(F)c(Cl)c4)cc32)c1` [Example 195, 6-(3-Chloro-4-fluoro-phenyl)-1-[(5-fluoro-3-pyridyl)methyl]pyrazolo[4,3-b]pyridine] is 1.8-fold lower in IC50: 45 nM for the first, 25 nM for the second. The second is the more potent here.

First: Clc1ccsc1-c1cnc2cnn(Cc3cccnc3)c2c1 [Example 141, 6-(3-Chloro-2-thienyl)-1-(3-pyridylmethyl)pyrazolo[4,3-b]pyridine]
Second: Fc1cncc(Cn2ncc3ncc(-c4ccc(Cl)cc4)cc32)c1 [Example 148, 6-(4-Chlorophenyl)-1-[(5-fluoro-3-pyridyl)methyl]pyrazolo[4,3-b]pyridine trifluoroacetate salt]
The IC50 of the first is 10-fold lower: 61 nM for the first, 634 nM for the second. The first is the more potent here.

Going from `Cc1nnc(Cn2ncc3ncc(-c4ccc(F)c(C)c4F)cc32)s1` [Example 136, 2-[[6-(2,4-Difluoro-3-methyl-phenyl)pyrazolo[4,3-b]pyridin-1-yl]methyl]-5-methyl-1,3,4-thiadiazole] to `Cc1cnc(Cn2ncc3ncc(-c4ccc(F)c(C)c4)cc32)o1` [Example 49, 2-[[6-(4-Fluoro-3-methyl-phenyl)pyrazolo[4,3-b]pyridin-1-yl]methyl]-5-methyl-oxazole], the IC50 rises from 17 nM to 53 nM (3.1-fold). The first is the more potent here.

First: Cc1ccc(Cn2ncc3ncc(-c4ccc(F)c(C(F)F)c4)cc32)s1 [Example 32, 6-[3-(Difluoromethyl)-4-fluoro-phenyl]-1-[(5-methyl-2-thienyl)methyl]pyrazolo[4,3-b]pyridine]
Second: Fc1ccc(-c2cnc3cnn(Cc4nnc(C(F)(F)F)o4)c3c2)cc1C(F)F [Example 102, 2-[[6-[3-(Difluoromethyl)-4-fluoro-phenyl]pyrazolo[4,3-b]pyridin-1-yl]methyl]-5-(trifluoromethyl)-1,3,4-oxadiazole]
The IC50 of the first is higher: > 2990 nM for the first, 49 nM for the second.

Going from `Fc1ccc(Cn2ncc3ncc(-c4ccc(F)c(Br)c4)cc32)cn1` [Example 235, 6-(3-Bromo-4-fluorophenyl)-1-((6-fluoropyridin-3-yl)methyl)-1H-pyrazolo[4,3-b]pyridine] to `Fc1ccc(-c2cnc3cnn(Cc4cncc(OC(F)F)c4)c3c2)cc1F` [Example 194, 1-[[5-(Difluoromethoxy)-3-pyridyl]methyl]-6-(3,4-difluorophenyl)pyrazolo[4,3-b]pyridine], the IC50 rises from 253 nM to 850 nM (3.4-fold). The first is the more potent here.

`FC(F)Oc1cc(-c2cnc3cnn(Cc4cncnc4)c3c2)ccc1Cl` [Example 279, 6-[4-Chloro-3-(difluoromethoxy)phenyl]-1-(pyrimidin-5-ylmethyl)pyrazolo[4,3-b]pyridine] was tested, and the IC50 was 90 nM.

From patent US11530210B2, “Substituted heteroaromatic pyrazolo-pyridines and their use as GLUN2B receptor modulators” (JANSSEN PHARMACEUTICA NV, priority 2019, dated 2022)
